Source: patent publication US20220117890A1, “CANNABINOID EMULSIONS” (CORN PRODUCTS DEVELOPMENT, INC., priority 2020, published 2022)

Assays:
[1] = Plasma pharmacokinetics of CBD after single IV or oral administration; format: in vivo, male Sprague-Dawley rats; settings: male, Sprague-Dawley, IV 2 mg/kg, rat
Text: Plasma pharmacokinetics following single intravenous cannabidiol (CBD solid) or oral administration (4 emulsions+1 non-emulsified oil) was investigated in male Sprague-Dawley rats. Rats were used for this study because they are an accepted model for characterization of pharmacokinetics of formulations being developed for humans. Twelve (12) single-catheterized rats (275-300 g, jugular vein catheter) were obtained from Envigo and divided into 6 groups of 2 animals each. Rats were acclimated for 5 days; the temperature was controlled from 68-79° F., the humidity was controlled from 20% to 70% and the light source was fluorescent lamps with a light/dark cycle of 12/12 hours on/off. No concurrent medication was administered during the study, and all rats had access (ad-libitum) to Tekland Rodent Chow 2018 (Envigo) and tap water throughout the live phase. All animals were randomly placed. Post acclimation, all animals received a single IV (tail vein injection) or oral treatment of one of the nanoemulsions, a non-emulsified oil, or a positive control based on Table 7. Group 1 animals received a single IV injection while Groups 2-6 received a single oral administration. The non-emulsified oil is CBD isolate dissolved in MCT oil. WFI=sterile water for injection. Dosing and dose volume are in […] (body weight) and mL/kg (body weight) respectively.
The CBD concentration in blood plasma samples obtained at various collection times (15, 30, 60, 120, 180, 240, 480 minutes and 24 hr) was determined.
The following pharmacokinetic parameters were determined: Bioavailability absolute (Fabs), Bioavailability relative to non-emulsified (Frel), the time at maximum concentration, the maximum concentration, and half-life (T1/2).

[2] = as above; format: in vivo, male Sprague-Dawley rats; settings: male, Sprague-Dawley, IV 2 mg/kg, rat, read-out: Concentration (CBD in blood plasma)

C=C(C)[C@@H]1CCC(C)=C[C@H]1c1c(O)cc(CCCCC)cc1O [CBD solid, cannabidiol]
AUC(0-inf) [1]: 2010 ng·h/mL
AUC(0-t) [1]: 1980 ng·h/mL
Cmax ([1]; read-out: Cmax (maximum concentration)): 1560 ng/mL
Tmax ([1]; read-out: Tmax (time at maximum concentration)): 15 min
concentration at 30 min ([1]; time 30 min, read-out: Concentration (CBD in blood plasma)): 481 ng/mL
concentration at 60 min ([1]; time 60 min, read-out: Concentration (CBD in blood plasma)): 341 ng/mL
concentration at 120 min ([1]; time 120 min, read-out: Concentration (CBD in blood plasma)): 178 ng/mL
concentration at 180 min ([1]; time 180 min, read-out: Concentration (CBD in blood plasma)): 89.2 ng/mL
concentration at 240 min ([1]; time 240 min, read-out: Concentration (CBD in blood plasma)): 44.2 ng/mL
concentration at 480 min ([1]; time 480 min, read-out: Concentration (CBD in blood plasma)): 10.6 ng/mL
concentration at 24 hr ([1]; time 24 hr, read-out: Concentration (CBD in blood plasma)): 5.2 ng/mL
concentration at 5 min [2]: 1560 ng/mL
